Here are results for one compound from ChEMBL document CHEMBL5506037, “Synthesis of Heterocyclic Ring-Fused Bisnoralcohol Derivatives as Novel Small-Molecule Antiosteoporosis Agents” (J Med Chem, 2024).

Calls of active or inactive are those of the source. No cut-off for these calls is given here.

Data set [1] concerns BMMC. Kind of data set: Anti-osteoclastogenesis activity in M-CSF/RANKL-induced C57BL/6J mouse BMMC cells assessed as inhibition of Mapk12 gene expression by RNA sequencing analysis. The class given is functional, cell-based.
The test system of data set [2] is BMMC. Put plainly: Anti-osteoclastogenesis activity in M-CSF/RANKL-induced C57BL/6J mouse BMMC cells assessed as inhibition of Nfatc1 gene expression by RNA sequencing analysis. Format: functional, cell-based.
The subject of data set [3] is BMMC. Put plainly: Anti-osteoclastogenesis activity in M-CSF/RANKL-induced C57BL/6J mouse BMMC cells assessed as inhibition of Itgb3 gene expression by RNA sequencing analysis. The class given is functional, cell-based.
Data set [4] concerns BMMC. Kind of data set: Anti-osteoclastogenesis activity in M-CSF/RANKL-induced C57BL/6J mouse BMMC cells assessed as inhibition of lilra5 gene expression by RNA sequencing analysis. Format: functional, cell-based.
Data set [5] concerns Mus musculus. Kind of data set: Anti-osteoporosis activity in ovariectomized C57BL/6 mouse assessed as prevention of bone loss by measuring reduction in osteoclast formation at 0.6 mg/kg, ip administered every day for 6 weeks by H and E staining based analysis. Format: functional, organism-based.
Data set [6] concerns BMMC. Put plainly: Anti-osteoclastogenesis activity in M-CSF/RANKL-induced C57BL/6J mouse BMMC cells assessed as reduction in MMP9 protein expression measured after 3 days by Western blot analysis. The class given is functional, cell-based. To be noted: dose 0.05-5 µM, time 3.0 day. For orientation: In western blotting, separated proteins are transferred to a membrane and probed.

Data set [7] can be described thus: Cmax in ICR mouse at 10 mg/kg, po measured upto 24 hrs by LC-MS/MS analysis. To be noted: in vivo. The class given is ADME, organism-based.
A short description of data set [8]: AUC (0 to infinity) in ICR mouse at 10 mg/kg, po measured upto 24 hrs by LC-MS/MS analysis. Format: ADME, organism-based. To be noted: in vivo.
Data set [9] relates to BMMC. Put plainly: Anti-osteoclastogenesis activity in M-CSF/RANKL-induced C57BL/6J mouse BMMC cells assessed as inhibition of Fosl2 gene expression by RNA sequencing analysis. Format: functional, cell-based.
Data set [10] has as its system Mus musculus. Kind of data set: Anti-osteoporosis activity in ovariectomized C57BL/6 mouse assessed as prevention of bone loss by measuring recovery of trabecular spacing in femur at 0.6 mg/kg, ip administered every day for 6 weeks by 3D-imaging analysis relative to control. The class given is functional.
Data set [11] concerns BMMC. Kind of data set: Anti-osteoclastogenesis activity in M-CSF/RANKL-induced C57BL/6J mouse BMMC cells assessed as inhibition of CALCR gene expression by RNA sequencing analysis. The class given is functional, cell-based.
Data set [12] deals with BMMC. Kind of data set: Anti-osteoclastogenesis activity in M-CSF/RANKL-induced C57BL/6J mouse BMMC cells assessed as inhibition of osteoclast differentiation at late stage at 0.1 uM measured after 5 to 7 days by TRAP staining based analysis relative to control. The class given is functional. To be noted: time 5-7 day.
Data set [13] concerns BMMC. Put plainly: Anti-osteoclastogenesis activity in M-CSF/RANKL-induced C57BL/6J mouse BMMC cells assessed as inhibition of Oscar gene expression by RNA sequencing analysis. The class given is functional, cell-based.
Data set [14] is described as follows: Terminal elimination half life in ICR mouse at 10 mg/kg, po measured upto 24 hrs by LC-MS/MS analysis. The class given is ADME, organism-based. To be noted: in vivo, read-out: beta t1/2 (converted).
For data set [15], the system named is Mus musculus. Put plainly: Anti-osteoporosis activity in ovariectomized C57BL/6 mouse assessed as prevention of bone loss by measuring recovery of trabecular thickness in femur at 0.2 to 0.6 mg/kg, ip administered every day for 6 weeks by 3D-imaging analysis. Format: functional, organism-based. To be noted: dose 0.2-0.6 mg/kg.
In data set [16] the test system is BMMC. Kind of data set: Anti-osteoclastogenesis activity in M-CSF/RANKL-induced C57BL/6J mouse BMMC cells assessed as reduction in osteoclast generation at 0.05 uM incubated for 7 days by TRAP staining based analysis relative to control. To be noted: time 7 day. Set-up: scale not given: the % may be the effect or the level left. Format: functional.
For data set [17], the system named is BMMC. Put plainly: Anti-osteoclastogenesis activity in M-CSF/RANKL-induced C57BL/6J mouse BMMC cells assessed as reduction in TRAP protein expression measured after 3 days by Western blot analysis. To be noted: dose 0.05-5 µM, time 3.0 day. Format: functional, cell-based.
Data set [18] relates to BMMC. Put plainly: Anti-osteoclastogenesis activity in M-CSF/RANKL-induced C57BL/6J mouse BMMC cells assessed as inhibition of osteoclast differentiation at early stage at 0.1 uM measured after 1 to 3 days by TRAP staining based analysis relative to control. Format: functional. The following applies: time 1-3 day.
Data set [19] relates to BMMC. Put plainly: Anti-osteoclastogenesis activity in M-CSF/RANKL-induced C57BL/6J mouse BMMC cells assessed as inhibition of CTSK gene expression by RNA sequencing analysis. Format: functional, cell-based.
Data set [20] relates to Mus musculus. Kind of data set: Anti-osteoporosis activity in ovariectomized C57BL/6 mouse assessed as prevention of bone loss by measuring recovery of trabecular number in femur at 0.6 mg/kg, ip administered every day for 6 weeks by 3D-imaging analysis relative to control. Format: functional.
For data set [21], the system named is BMMC. Kind of data set: Anti-osteoclastogenesis activity in M-CSF/RANKL-induced C57BL/6J mouse BMMC cells assessed as inhibition of osteoclast differentiation at 0.1 uM incubated for 7 days by TRAP staining based analysis relative to control. The class given is functional. The following applies: 168 h, time 7 day.
Data set [22] in a line: AUC (0 to t) in ICR mouse at 10 mg/kg, po measured upto 24 hrs by LC-MS/MS analysis. The class given is ADME, organism-based. The following applies: in vivo.

One may read the Cmax as the highest concentration seen after dosing. As usually defined, the AUC(0-inf) is total exposure, with the tail of the curve extrapolated. As usually defined, the inhibition is the relative decrease from the control value, in per cent. Broadly, the AUC(0-t) is exposure summed from dosing to a finite time, without extrapolation to infinity. For the compound `CCNC(=O)[C@@H](C)[C@H]1CC[C@H]2[C@@H]3CC=C4C(C)(C)c5nnsc5C[C@]4(C)[C@H]3CC[C@]12C`, the outcome in data set [1], in data set [2], in data set [3], in data set [4], in [5] and in data set [9] was Active. The result in data set [11], in data set [13] and in [19] was Active. The Activity result is “Dose-Dependent Effect” in data set [6]; 61.09% in [10]; 50% in [16]; “Dose-Dependent Effect” in data set [17]; 48.64% in data set [20]. Also, in data set [7], the highest level (Cmax) was 230 ng/mL. In [8], the area under the curve AUC(0-inf) worked out at 688 ng·h/mL. The inhibition at 0.1 µM in data set [12] was determined as 10.9%; in [18], 73.1%; in data set [21], 82.8%. Besides, in data set [14], the half-life was 1.79 h. In addition, the outcome in [15] was inactive. Moreover, the AUC(0-t) at 24 h in data set [22] amounted to 654 ng·h/mL.
